Experimental data from patent US20050026957A1, “Methods of treating nodulocystic acne” (Allergan, Inc., priority 2003, published 2005).
Blank lines part the entries; values can stand above or below the compound they belong to.

Legend:
[1] = Food effect on pharmacokinetics of tazarotenic acid after oral tazarotene (high-fat meal vs fast); format: in vivo, human; conditions: 6.3 mg oral tazarotene, healthy subjects; for average ratio of Cmax values (test/reference): high-fat meal vs 8-10 hour fast
Procedure: For the purposes of this application, the bioavailability of a drug may be based on the human pharmokinetic parameters of maximum blood concentration (Cmax) and Area under the blood concentration-time curve (AUC).
The LC-MS/MS test for simultaneous detection of tazarotene and tazarotenic acid may be run as follows. One ml of plasma (EDTA-treated) is diluted with 1.0 ml of water. Diluted plasma is extracted using solid phase extraction (SPE) on a C18 cartridge. The eluate is evaporated, reconstituted in a water/methanol-based mobile phase, and injected onto a 4.6×50 mm, 3 μm pore size C-8 reverse phase high pressure liquid chromatography (HPLC) column (Agilent, Wilmington, Del.). Compounds are gradient-eluted at 1.2 mL/min and detected using an API 3000 triple quadrupole mass spectrometer with an Atmospheric Pressure Chemical Ionization (APCI) source (PE-Sciex, Concord, Ontario, Canada). Molecular reaction monitoring enhances the sensitivity and selectivity of this assay by collisionally dissociating the protonated molecules for the analyte and an internal standard thereby forming the product ions. The specific precursor-product ion pair monitored are m/z 352→324 for tazarotene, m/z 359→331 for the tazarotene internal standard, m/z 324→294 for tazarotenic acid, and m/z 331+298 for the tazarotenic acid internal standard. The lower limit of quantitation at assay range tested is 0.1 ng/mL, with a coefficient of variation and deviation from nominal concentration of <15%.

[2] = PK and PD interaction studies of oral tazarotene with oral contraceptives; format: in vivo, human; conditions: tazarotene 1.1 mg or 6 mg daily with NE/EE or NGM/EE
Procedure: It is the objective of this study to determine if there are pharmacokinetic (PK) and pharmacodynamic (PD) interactions between tazarotene and commonly prescribed oral contraceptives (OCs) when coadministered together.
Three separate clinical studies are conducted to evaluate the PK and PD interactions of oral tazarotene and OCs in healthy volunteers. Two studies evaluate daily doses of norethindrone (NE)/ethinyl estradiol (EE) with daily doses of tazarotene 1.1 mg (N=27) and 6 mg (N=29). The third study assesses the daily doses of norgestimate (NGM)/EE with daily doses of tazarotene 6 mg (N=26). OCs are administered for three consecutive menstrual cycles. Daily doses of tazarotene are started during the 2nd cycle and continued through the end of the studies. PK parameters for EE, NE, and NGM (AUC0-24 and Cmax) are determined before tazarotene dosing and after tazarotene dosing on day 6 of the 2nd and 3rd cycles. Serum concentrations of luteinizing hormone (LH) and follicle-stimulating hormone (FSH)-markers of contraceptive efficacy are also evaluated before tazarotene dosing and after tazarotene dosing on days 2, 4, and 6 of the 2nd and 3rd cycles. Serum progesterone levels are assessed on days 18 and 20 of the 2nd and 3rd cycles. […]

[3] = topical administration of tazarotene; 'often well less than'; cited from earlier work
[4] = oral, cited from earlier work; for impact of food on bioavailability: literature
[5] = tested on: patients treated for acne; experiment: Adverse event monitoring in studies of orally administered tazarotene for acne (Table 2); format: in vivo, human; conditions: combined data from Studies 1 and 2 (N = 223)
Procedure: Studies are conducted on orally administered tazarotene for the treatment of acne. Adverse events (side effects) are monitored.

patients = experiment: Two placebo-controlled 24-week safety studies of oral tazarotene plus dose-response evaluations; format: in vivo, human; conditions: 4.5 mg orally once daily; two safety trials; placebo 17%
Procedure: Two multicenter, double-blind, randomized, placebo-controlled 24-week studies of identical design are conducted to evaluate the safety of oral tazarotene. In addition, 16- to 24-week dose-response evaluations are performed.
In the two safety trials, the incidence of adverse side effects with a 4.5 mg dose administered orally once daily is compared to the incidence of the same side effects with a placebo. […] The majority of these were mild in severity and typical of adverse effects associated with oral retinoids.

[6] = tested on: patients having nodulocystic acne; experiment: Two placebo-controlled dose-ranging safety studies of oral tazarotene in nodulocystic acne; format: in vivo, human; conditions: for cheilitis: treatment period; for Emotional lability: all cases mild
Procedure: Two placebo-controlled dose-ranging studies are conducted to evaluate the safety of oral tazarotene in patients having nodulocystic acne. In the first study, patients receive orally administered tazarotene at daily doses of 0.4 mg to 2.8 mg in 96 (71+25) patients (12 weeks treatment plus 12 weeks post-treatment). In the second study, daily doses of 0.75 mg to 6 mg tazarotene are administered to 181 patients (24 weeks treatment plus 12 weeks post-treatment).

severe psoriasis = experiment: Patient with severe psoriasis on Ortho-Novum treated with tazarotene; format: in vivo, human; conditions: 6 mg per day; after 30 days
Excerpt: The patient presents symptoms of severe psoriasis. The symptoms include lesions approximately 4 to 10 centimeters across appearing as raised patches of wine red skin many of which are covered in silvery white scales. The lesions are mostly dry and rough, and quite often noticeably warm to the touch. The lesions are present on the elbows, knees, scalp, and groin area. The patient experiences intense burning and itching associated with the lesions.
The patient is currently taking Ortho-Novum® for contraception.
Tazarotene at a dose of 6 mg per day is prescribed.

severe nodulocystic acne = experiment: Double-blind, randomized, placebo-controlled study of oral tazarotene in severe nodulocystic acne; format: in vivo, human
Excerpt: A multicenter, double-blind, randomized, placebo-controlled parallel-group study is undertaken to determine the efficacy of orally administered tazarotene in treating severe nodulocystic acne.
In addition, washout periods for other medications for this study are: 1 week for vitamin A supplements >5000 IU; 2 weeks for topical anti-acne medications (e.g., retinoids, azelaic acid, benzoyl peroxide); 2 weeks for topical or systemic antibiotic therapy that may alter the course of acne; and 6 months for systemic retinoids.
Patients are randomized to receive placebo or oral tazarotene (0.75, 1.5, 3, or 6 mg), in a 1:1:1:1:1 ratio once daily for 24 weeks. After this, the patients are followed without treatment for an additional 12 weeks. Patients discontinuing from the treatment period due to adverse effects or lack of efficacy are eligible for entry into the post-treatment phase.
In the study, overall acne severity is rated as: none (no inflammatory acne lesions); mild (few to several papules or pustules, no nodulocystic lesions); moderate (several to many papules or pustules, few to several nodulocystic lesions); and severe (numerous or extensive papules or pustules, many, for example, at least about 5 or at least about 10, nodulocystic lesions). […]
(§1) Sebum output is assessed every 4 weeks at selected centers using the Sebutape® patches, sold by Cuderm Corporation. Urinalysis, chemistry, and hematology values are monitored. Bone formation and resorption assessments (serum bone alkaline phosphatase and serum amino terminal telopeptides, respectively) at selected centers are monitored.
Bone mineral density of spine and proximal femur at selected centers is monitored. Ligament calcification or osteophyte formation (lateral X-ray of the cervical and thoracic spine, and ankle calcaneous) is monitored. Epiphyseal growth plate closure (internal oblique X-ray of the ankle in patients less than or equal to 21 years old) is monitored.

sebum secretion = experiment: Sebum output by Sebutape patches in the nodulocystic acne study; format: in vivo, human; conditions: oral 0.75 to 6 mg once daily; up to 86 patients
Procedure: as §1
Sebum secretion output is assessed in a maximum of 86 patients (with successively fewer patients at each timepoint—e.g., 60 patients at week 24, 46 patients at week 36). Importantly, there is no consistent statistically significant differences in sebum production across treatment groups using the Sebutape® method of assessment.

sebaceous glands = conditions: severe acne; published reports (Geiger); cited from earlier work
[7] = in vivo; cited from earlier work

effect of high-fat meal on bioavailability or pharmacokinetics ([1]; single and multiple dose): does not substantially affect | average ratio of Cmax values (test/reference) ([1]; Day 0): 1.00 | average ratio of Cmax values (test/reference) ([1]; Day 9): 0.829 | 90% confidence intervals of AUC0-24 and Cmax for EE, NE, and NGM [2]: within the 80-125% boundary
Compound: CC1(C)CCSc2ccc(C#Cc3ccc(C(=O)O)cn3)cc21 [tazarotenic acid]
maximum blood concentration [3]: less than 30 ng/ml

Compound: C=C(c1ccc(C(=O)O)cc1)c1cc2c(cc1C)C(C)(C)CCC2(C)C [bexarotene]
impact of food on bioavailability [4]: bioavailability is increased in the presence of food

abnormalities in liver function test results or elevated triglycerides, total cholesterol, or HDL cholesterol (severe nodulocystic acne; oral 0.75 to 6 mg once daily): not generally associated
Compound: CCOC(=O)c1ccc(C#Cc2ccc3c(c2)C(C)(C)CCS3)nc1 [tazarotene]
Conjunctivitis [5]: 0 (0.0) NUMBER OF (%) OF PATIENTS | Irritation of eyes [5]: 0 (0.0) NUMBER OF (%) OF PATIENTS | incidence of cheilitis (patients): 66% | joint disorder ([6]; 2.8 mg, n=11, placebo 0%): 27% | arthralgia ([6]; 2.8 mg, n=11, placebo 6%): 9% | myalgia ([6]; 2.8 mg, n=11, placebo 9%): 0% | asthenia ([6]; 2.8 mg, n=11, placebo 13%): 0% | dry skin ([6]; 2.8 mg, n=11, placebo 19%): 18% | headache ([6]; 2.8 mg, n=11, placebo 28%): 9% | cheilitis ([6]; 2.8 mg, n=11, placebo 31%): 64% | Emotional lability ([6]; 3 mg group, placebo 2 (4%)): 1 (3%) patient (%) | arthralgia ([6]; 3 mg, n=37): 8% | asthenia ([6]; 3 mg, n=37): 19% | dry skin ([6]; 3 mg, n=37): 35% | headache ([6]; 3 mg, n=37): 19% | joint disorder ([6]; 3 mg, n=37): 14% | myalgia ([6]; 3 mg, n=37): 16% | cheilitis ([6]; 3 mg, n=37): 78% | Depression ([6]; 6 mg group): none | Emotional lability ([6]; 6 mg group): 5 (14%) patient (%) | arthralgia ([6]; 6 mg, n=36): 28% | asthenia ([6]; 6 mg, n=36): 19% | dry skin ([6]; 6 mg, n=36): 50% | headache ([6]; 6 mg, n=36): 36% | joint disorder ([6]; 6 mg, n=36): 19% | myalgia ([6]; 6 mg, n=36): 25% | cheilitis ([6]; 6 mg, n=36): 94% | changes in urinalysis, chemistry, or hematology measures (incl. liver function tests, triglycerides, total cholesterol, HDL cholesterol) ([6]; 0.4 to 6 mg daily): no consistent dose-related clinically significant changes | patients withdrawing from either study due to adverse events ([6]; 7/277, all groups of both studies incl. placebo): 2.5% | psoriasis symptoms and lesions (severe psoriasis): symptoms of itching and burning are relieved | incidence of treatment success (≧50% global improvement) vs placebo (severe nodulocystic acne; 3 mg and 6 mg, week 24 and throughout post-treatment phase, p≦0.05): significantly higher | reduction of overall acne severity (severe nodulocystic acne; 6 mg, week 16 until end of post-treatment phase, p≦0.01): significantly more than placebo | effect on sebum secretion (Sebutape method) (sebum secretion): does not substantially reduce sebum secretion relative to placebo

Compound: CC1=C(/C=C/C(C)=C/C=C/C(C)=C\C(=O)O)C(C)(C)CCC1 [Isotretinoin, isotretinoin]
decrease in sebum secretion rate (sebaceous glands): about 90% | total dose needed to reach the same peak blood concentration in the fasted state vs following a high fat meal [4]: more than doubled | impact of food on bioavailability [4]: bioavailability is increased in the presence of food | effect on coadministered contraceptive tablets [7]: decreases blood concentrations of both ethinyl estradiol and norethindrone

Compound: COc1cc(C)c(/C=C/C(C)=C/C=C/C(C)=C/C(=O)O)c(C)c1C [Acitretin, acitretin]
impact of food on bioavailability [4]: bioavailability is increased in the presence of food
